Test results from the NIST ThermoML archive (doi:10.1021/je600562n).
Several values for one entry are separate records, joined by “and”; a condition that tells them apart may be missing. Equal values may be shown once. Numbers after ± are expanded uncertainties.

Details: Liquid; for mass density: Vibrating tube method; for viscosity: Vibrating wire viscometry

Question: For `CC(C)CCCCCCCOC(=O)c1ccccc1C(=O)OCCCCCCCC(C)C`, which mass density (298.15 K, 101.33 kPa) is on record?
Answer: The mass density was 963.81 ± 0.97 kg/m3 [middle of 7 runs].

Question: And the viscosity (298.15 K, 101.33 kPa)?
Answer: The viscosity was 87.2 ± 1.9 mPa·s and 87.5 ± 2 mPa·s and 87.3 ± 2 mPa·s.

Question: And the mass density (298.15 K, 5000 kPa)?
Answer: Its mass density is 962.8 ± 2.9 kg/m3.

Question: And the mass density (298.15 K, 10000 kPa)?
Answer: The mass density was 965.6 ± 2.9 kg/m3.

Question: What about the viscosity (298.15 K, 10000 kPa) of the same compound?
Answer: The viscosity was 107.3 ± 2.5 mPa·s.

Question: And the mass density (298.15 K, 20000 kPa)?
Answer: Its mass density is 970.8 ± 2.9 kg/m3.

Question: What about the mass density (298.15 K, 30000 kPa) of the same compound?
Answer: Its mass density is 976 ± 2.9 kg/m3.

Question: What about the mass density (298.15 K, 50000 kPa) of the same compound?
Answer: The mass density was 985.5 ± 3 kg/m3.

Question: And the mass density (298.15 K, 70000 kPa)?
Answer: Its mass density is 995.2 ± 3 kg/m3.

Question: And the viscosity (303.15 K, 101.33 kPa)?
Answer: Its viscosity is 64.6 ± 1.3 mPa·s.

Question: What about the viscosity (303.15 K, 10000 kPa) of the same compound?
Answer: The viscosity was 78.5 ± 1.9 mPa·s.

Question: And the viscosity (303.15 K, 20000 kPa)?
Answer: The viscosity was 98 ± 2.5 mPa·s.

Question: And the viscosity (303.15 K, 30000 kPa)?
Answer: Its viscosity is 120.9 ± 3.2 mPa·s.

Question: And the viscosity (308.15 K, 101.33 kPa)?
Answer: Its viscosity is 48.99 ± 1 mPa·s.

Question: And the viscosity (308.15 K, 10000 kPa)?
Answer: The viscosity was 60.3 ± 1.3 mPa·s.

Question: What about the viscosity (308.15 K, 20000 kPa) of the same compound?
Answer: Its viscosity is 73.1 ± 1.7 mPa·s.

Question: And the viscosity (308.15 K, 30000 kPa)?
Answer: The viscosity was 89 ± 2.2 mPa·s.

Question: And the viscosity (308.15 K, 50000 kPa)?
Answer: Its viscosity is 135.4 ± 3.6 mPa·s.

Question: What about the viscosity (313.15 K, 101.33 kPa) of the same compound?
Answer: The viscosity was 37.74 ± 0.77 mPa·s.

Question: What about the viscosity (313.15 K, 10000 kPa) of the same compound?
Answer: Its viscosity is 46.5 ± 1 mPa·s.

Question: What about the viscosity (313.15 K, 20000 kPa) of the same compound?
Answer: Its viscosity is 57 ± 1.3 mPa·s.

Question: And the viscosity (313.15 K, 30000 kPa)?
Answer: Its viscosity is 68.1 ± 1.6 mPa·s.

Question: What about the viscosity (313.15 K, 50000 kPa) of the same compound?
Answer: Its viscosity is 100.1 ± 2.5 mPa·s.

Question: And the mass density (323.15 K, 101.33 kPa)?
Answer: The mass density was 945.64 ± 0.95 kg/m3 [middle of 7 runs].

Question: What about the viscosity (323.15 K, 101.33 kPa) of the same compound?
Answer: Its viscosity is 23.85 ± 0.49 mPa·s and 23.84 ± 0.5 mPa·s.

Question: What about the mass density (323.15 K, 5000 kPa) of the same compound?
Answer: Its mass density is 945.4 ± 2.9 kg/m3.

Question: And the mass density (323.15 K, 10000 kPa)?
Answer: The mass density was 948.5 ± 2.9 kg/m3.

Question: What about the viscosity (323.15 K, 10000 kPa) of the same compound?
Answer: Its viscosity is 29.24 ± 0.6 mPa·s.

Question: What about the mass density (323.15 K, 20000 kPa) of the same compound?
Answer: Its mass density is 954.6 ± 2.9 kg/m3.

Question: And the viscosity (323.15 K, 20000 kPa)?
Answer: Its viscosity is 35.63 ± 0.8 mPa·s.

Question: And the mass density (323.15 K, 30000 kPa)?
Answer: Its mass density is 960.4 ± 2.9 kg/m3.

Question: What about the viscosity (323.15 K, 30000 kPa) of the same compound?
Answer: The viscosity was 42.46 ± 0.94 mPa·s.

Question: What about the mass density (323.15 K, 50000 kPa) of the same compound?
Answer: The mass density was 970.7 ± 2.9 kg/m3.

Question: And the viscosity (323.15 K, 50000 kPa)?
Answer: The viscosity was 60.4 ± 1.3 mPa·s.

Question: And the mass density (323.15 K, 70000 kPa)?
Answer: Its mass density is 980.1 ± 3 kg/m3.

Question: What about the viscosity (323.15 K, 70000 kPa) of the same compound?
Answer: Its viscosity is 80.6 ± 1.8 mPa·s.

Question: What about the mass density (348.15 K, 101.33 kPa) of the same compound?
Answer: Its mass density is 927.68 ± 0.94 kg/m3 [middle of 7 runs].

Question: And the viscosity (348.15 K, 101.33 kPa)?
Answer: The viscosity was 9.71 ± 0.19 mPa·s and 9.72 ± 0.19 mPa·s and 9.71 ± 0.2 mPa·s.

Question: What about the mass density (348.15 K, 5000 kPa) of the same compound?
Answer: The mass density was 927.9 ± 2.8 kg/m3.

Question: And the mass density (348.15 K, 10000 kPa)?
Answer: The mass density was 931.3 ± 2.8 kg/m3.

Question: And the viscosity (348.15 K, 10000 kPa)?
Answer: Its viscosity is 11.55 ± 0.25 mPa·s.

Question: And the mass density (348.15 K, 20000 kPa)?
Answer: Its mass density is 938 ± 2.8 kg/m3.

Question: What about the viscosity (348.15 K, 20000 kPa) of the same compound?
Answer: The viscosity was 13.81 ± 0.3 mPa·s.

Question: What about the mass density (348.15 K, 30000 kPa) of the same compound?
Answer: The mass density was 944.1 ± 2.8 kg/m3.

Question: What about the viscosity (348.15 K, 30000 kPa) of the same compound?
Answer: Its viscosity is 15.93 ± 0.34 mPa·s.

Question: And the mass density (348.15 K, 50000 kPa)?
Answer: Its mass density is 955.3 ± 2.9 kg/m3.

Question: What about the viscosity (348.15 K, 50000 kPa) of the same compound?
Answer: The viscosity was 21.5 ± 0.5 mPa·s.

Question: What about the mass density (348.15 K, 70000 kPa) of the same compound?
Answer: The mass density was 965.7 ± 2.9 kg/m3.

Question: What about the viscosity (348.15 K, 70000 kPa) of the same compound?
Answer: Its viscosity is 28.86 ± 0.76 mPa·s.

Question: What about the mass density (363.15 K, 101.33 kPa) of the same compound?
Answer: Its mass density is 917.07 ± 0.92 kg/m3 [middle of 6 runs].

Question: And the viscosity (363.15 K, 101.33 kPa)?
Answer: Its viscosity is 6.39 ± 0.13 mPa·s.

Question: And the mass density (373.15 K, 101.33 kPa)?
Answer: Its mass density is 907 ± 2.7 kg/m3.

Question: And the viscosity (373.15 K, 101.33 kPa)?
Answer: The viscosity was 5.03 ± 0.1 mPa·s.

Question: What about the mass density (373.15 K, 5000 kPa) of the same compound?
Answer: Its mass density is 911.1 ± 2.8 kg/m3.

Question: What about the mass density (373.15 K, 10000 kPa) of the same compound?
Answer: Its mass density is 914.8 ± 2.8 kg/m3.

Question: And the viscosity (373.15 K, 10000 kPa)?
Answer: The viscosity was 5.92 ± 0.12 mPa·s.

Question: What about the mass density (373.15 K, 20000 kPa) of the same compound?
Answer: Its mass density is 922.1 ± 2.8 kg/m3.

Question: What about the viscosity (373.15 K, 20000 kPa) of the same compound?
Answer: The viscosity was 6.96 ± 0.15 mPa·s.

Question: What about the mass density (373.15 K, 30000 kPa) of the same compound?
Answer: The mass density was 929 ± 2.8 kg/m3.

Question: And the viscosity (373.15 K, 30000 kPa)?
Answer: Its viscosity is 7.84 ± 0.17 mPa·s.

Question: What about the mass density (373.15 K, 50000 kPa) of the same compound?
Answer: Its mass density is 941 ± 2.8 kg/m3.

Question: And the viscosity (373.15 K, 50000 kPa)?
Answer: The viscosity was 10.33 ± 0.22 mPa·s.

Question: What about the mass density (373.15 K, 70000 kPa) of the same compound?
Answer: Its mass density is 952.1 ± 2.9 kg/m3.

Question: What about the viscosity (373.15 K, 70000 kPa) of the same compound?
Answer: Its viscosity is 13.45 ± 0.32 mPa·s.

Question: And the viscosity (398.15 K, 101.33 kPa)?
Answer: The viscosity was 3.043 ± 0.063 mPa·s.

Question: What about the mass density (398.15 K, 5000 kPa) of the same compound?
Answer: The mass density was 893.4 ± 2.7 kg/m3.

Question: And the mass density (398.15 K, 10000 kPa)?
Answer: Its mass density is 898.8 ± 2.7 kg/m3.

Question: What about the viscosity (398.15 K, 10000 kPa) of the same compound?
Answer: Its viscosity is 3.601 ± 0.074 mPa·s.

Question: What about the mass density (398.15 K, 20000 kPa) of the same compound?
Answer: The mass density was 906.6 ± 2.7 kg/m3.

Question: And the viscosity (398.15 K, 20000 kPa)?
Answer: The viscosity was 4.12 ± 0.09 mPa·s.

Question: And the mass density (398.15 K, 30000 kPa)?
Answer: Its mass density is 913.5 ± 2.8 kg/m3.

Question: And the viscosity (398.15 K, 30000 kPa)?
Answer: Its viscosity is 4.741 ± 0.1 mPa·s.

Question: What about the mass density (398.15 K, 50000 kPa) of the same compound?
Answer: Its mass density is 926 ± 2.8 kg/m3.

Question: And the viscosity (398.15 K, 50000 kPa)?
Answer: Its viscosity is 5.98 ± 0.13 mPa·s.

Question: What about the mass density (398.15 K, 70000 kPa) of the same compound?
Answer: The mass density was 938.9 ± 2.8 kg/m3.

Question: And the viscosity (398.15 K, 70000 kPa)?
Answer: The viscosity was 7.64 ± 0.17 mPa·s.

Question: And the viscosity (423.15 K, 101.33 kPa)?
Answer: Its viscosity is 2.052 ± 0.042 mPa·s.

Question: What about the mass density (423.15 K, 5000 kPa) of the same compound?
Answer: Its mass density is 877.5 ± 2.7 kg/m3.

Question: And the mass density (423.15 K, 10000 kPa)?
Answer: Its mass density is 881.6 ± 2.7 kg/m3.

Question: And the viscosity (423.15 K, 10000 kPa)?
Answer: The viscosity was 2.401 ± 0.052 mPa·s.

Question: And the mass density (423.15 K, 20000 kPa)?
Answer: Its mass density is 890.4 ± 2.7 kg/m3.

Question: And the viscosity (423.15 K, 20000 kPa)?
Answer: Its viscosity is 2.707 ± 0.058 mPa·s.

Question: What about the mass density (423.15 K, 30000 kPa) of the same compound?
Answer: Its mass density is 898.6 ± 2.7 kg/m3.

Question: What about the viscosity (423.15 K, 30000 kPa) of the same compound?
Answer: Its viscosity is 3.001 ± 0.065 mPa·s.

Question: What about the mass density (423.15 K, 50000 kPa) of the same compound?
Answer: The mass density was 912.6 ± 2.8 kg/m3.

Question: And the viscosity (423.15 K, 50000 kPa)?
Answer: The viscosity was 3.857 ± 0.082 mPa·s.

Question: What about the mass density (423.15 K, 70000 kPa) of the same compound?
Answer: The mass density was 926.7 ± 2.8 kg/m3.

Question: What about the viscosity (423.15 K, 70000 kPa) of the same compound?
Answer: The viscosity was 4.826 ± 0.1 mPa·s.
